Experimental data: US20250177363A1, “SUBSTITUTED IMIDAZOPYRIDINYL COMPOUNDS USEFUL AS INHIBITORS OF TLR9” (Bristol-Myers Squibb Company, priority 2022, published 2025)

Key:
Type in all cases: cell-based
[1] = target: T1, human TLR9 (Homo sapiens, UniProt Q9NR96); experiment: TLR9 inhibition reporter assay (HEK-Blue, SEAP); details: HEK-Blue cells overexpressing human TLR9, ligand ODN2006 200 nM, 22 hour incubation
T1 construct: host or cells: HEK-Blue cells
T1 sequence (Q9NR96 26-1032): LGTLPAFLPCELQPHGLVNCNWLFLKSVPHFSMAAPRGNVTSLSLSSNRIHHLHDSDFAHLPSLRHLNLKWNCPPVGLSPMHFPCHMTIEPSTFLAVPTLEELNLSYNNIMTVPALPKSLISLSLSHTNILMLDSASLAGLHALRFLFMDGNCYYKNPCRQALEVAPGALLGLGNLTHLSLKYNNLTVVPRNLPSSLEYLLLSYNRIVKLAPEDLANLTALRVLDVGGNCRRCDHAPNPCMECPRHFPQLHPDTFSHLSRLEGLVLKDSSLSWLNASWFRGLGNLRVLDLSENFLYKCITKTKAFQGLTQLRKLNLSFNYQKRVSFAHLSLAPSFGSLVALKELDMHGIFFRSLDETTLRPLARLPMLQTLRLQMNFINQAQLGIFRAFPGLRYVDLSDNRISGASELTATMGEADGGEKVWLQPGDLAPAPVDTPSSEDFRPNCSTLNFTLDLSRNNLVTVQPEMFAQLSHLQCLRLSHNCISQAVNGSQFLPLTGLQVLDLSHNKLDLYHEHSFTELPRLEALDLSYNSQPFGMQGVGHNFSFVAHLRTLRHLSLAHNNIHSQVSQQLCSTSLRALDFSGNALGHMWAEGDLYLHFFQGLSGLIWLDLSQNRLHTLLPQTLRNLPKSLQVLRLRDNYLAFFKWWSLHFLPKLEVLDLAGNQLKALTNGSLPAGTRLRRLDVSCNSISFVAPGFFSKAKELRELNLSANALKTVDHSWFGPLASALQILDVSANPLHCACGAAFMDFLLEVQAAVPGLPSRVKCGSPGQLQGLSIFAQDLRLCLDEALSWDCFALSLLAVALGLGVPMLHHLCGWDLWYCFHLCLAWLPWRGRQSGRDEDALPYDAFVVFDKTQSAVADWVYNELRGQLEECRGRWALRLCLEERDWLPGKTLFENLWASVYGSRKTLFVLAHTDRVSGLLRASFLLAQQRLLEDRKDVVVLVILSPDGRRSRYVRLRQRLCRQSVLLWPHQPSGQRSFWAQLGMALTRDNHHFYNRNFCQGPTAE
Procedure: (§1) TLR7/8/9 Inhibition Reporter Assays
(§2) HEK-Blue™-cells (Invivogen) overexpressing human TLR7. TLR8 or TLR9 receptors were used for screening inhibitors of these receptors using an inducible SEAP (secreted embryonic alkaline phosphatase) reporter gene under the control of the IFN-β minimal promoter fused to five NF-κB and AP-1-binding sites. Cells are seeded into Greiner 384 well plates (15000 cells per well) that are pre dispensed (by ECHO) with testing compounds in DMSO to yield a final dose response concentration range of 0.85 nM-50 μM. After a 60 minute compound pre-treatment in 37 degree incubator, the cells are then stimulated with a TLR7 ligand (gardiquimod at a final concentration of 2.5 μM), TLR8 ligand (R848 at a final concentration of 14.25 μM) or TLR9 ligand (ODN2006 at a final concentration of 200 nM) to activate NF-κB and AP-1 which induce the production of SEAP. After a 22 hour incubation at 37° C., 5% CO2, SEAP levels are determined with the addition of HEK-Blue™ Detection reagent (Invivogen), a cell culture medium that allows for detection of SEAP, according to manufacturer's specifications. The percent inhibition is determined as the % reduction in the HEK-Blue signal present in […].

[2] = target: T2, human TLR7 (Homo sapiens, UniProt Q9NYK1); experiment: TLR7 inhibition reporter assay (HEK-Blue, SEAP); details: HEK-Blue cells overexpressing human TLR7, ligand gardiquimod 2.5 μM, 22 hour incubation
T2 construct: host or cells: HEK-Blue cells
T2 sequence (Q9NYK1 27-1049): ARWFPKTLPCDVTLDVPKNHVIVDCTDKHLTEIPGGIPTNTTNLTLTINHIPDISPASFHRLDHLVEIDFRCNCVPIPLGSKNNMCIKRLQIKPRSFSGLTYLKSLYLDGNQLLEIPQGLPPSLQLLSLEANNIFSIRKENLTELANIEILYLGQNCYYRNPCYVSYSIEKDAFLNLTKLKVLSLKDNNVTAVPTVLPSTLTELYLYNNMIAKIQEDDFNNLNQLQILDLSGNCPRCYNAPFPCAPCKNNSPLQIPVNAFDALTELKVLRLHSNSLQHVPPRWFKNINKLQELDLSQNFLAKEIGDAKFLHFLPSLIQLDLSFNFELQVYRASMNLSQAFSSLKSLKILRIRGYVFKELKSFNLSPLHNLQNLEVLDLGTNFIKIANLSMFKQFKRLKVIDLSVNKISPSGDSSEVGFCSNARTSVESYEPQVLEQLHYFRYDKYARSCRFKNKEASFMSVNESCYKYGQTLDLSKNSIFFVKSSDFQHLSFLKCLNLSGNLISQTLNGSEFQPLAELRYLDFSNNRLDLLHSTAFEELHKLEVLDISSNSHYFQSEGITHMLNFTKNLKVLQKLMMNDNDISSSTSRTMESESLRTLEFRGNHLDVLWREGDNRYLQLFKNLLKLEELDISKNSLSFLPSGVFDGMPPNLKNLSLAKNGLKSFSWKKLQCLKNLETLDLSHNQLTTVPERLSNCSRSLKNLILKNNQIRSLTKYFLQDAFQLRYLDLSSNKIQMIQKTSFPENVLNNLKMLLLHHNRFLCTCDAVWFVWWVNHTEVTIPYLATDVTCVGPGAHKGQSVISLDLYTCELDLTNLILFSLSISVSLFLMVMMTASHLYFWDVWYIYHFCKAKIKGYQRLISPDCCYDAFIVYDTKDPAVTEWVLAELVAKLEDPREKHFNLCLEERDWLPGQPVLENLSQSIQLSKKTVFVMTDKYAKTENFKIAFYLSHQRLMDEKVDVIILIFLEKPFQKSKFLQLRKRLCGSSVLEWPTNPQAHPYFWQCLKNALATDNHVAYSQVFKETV
Procedure: as §1, §2

[3] = target: T3, human TLR8 (Homo sapiens, UniProt Q9NR97); experiment: TLR8 inhibition reporter assay (HEK-Blue, SEAP); details: HEK-Blue cells overexpressing human TLR8, ligand R848 14.25 μM, 22 hour incubation
T3 construct: host or cells: HEK-Blue cells
T3 sequence (Q9NR97 27-1041): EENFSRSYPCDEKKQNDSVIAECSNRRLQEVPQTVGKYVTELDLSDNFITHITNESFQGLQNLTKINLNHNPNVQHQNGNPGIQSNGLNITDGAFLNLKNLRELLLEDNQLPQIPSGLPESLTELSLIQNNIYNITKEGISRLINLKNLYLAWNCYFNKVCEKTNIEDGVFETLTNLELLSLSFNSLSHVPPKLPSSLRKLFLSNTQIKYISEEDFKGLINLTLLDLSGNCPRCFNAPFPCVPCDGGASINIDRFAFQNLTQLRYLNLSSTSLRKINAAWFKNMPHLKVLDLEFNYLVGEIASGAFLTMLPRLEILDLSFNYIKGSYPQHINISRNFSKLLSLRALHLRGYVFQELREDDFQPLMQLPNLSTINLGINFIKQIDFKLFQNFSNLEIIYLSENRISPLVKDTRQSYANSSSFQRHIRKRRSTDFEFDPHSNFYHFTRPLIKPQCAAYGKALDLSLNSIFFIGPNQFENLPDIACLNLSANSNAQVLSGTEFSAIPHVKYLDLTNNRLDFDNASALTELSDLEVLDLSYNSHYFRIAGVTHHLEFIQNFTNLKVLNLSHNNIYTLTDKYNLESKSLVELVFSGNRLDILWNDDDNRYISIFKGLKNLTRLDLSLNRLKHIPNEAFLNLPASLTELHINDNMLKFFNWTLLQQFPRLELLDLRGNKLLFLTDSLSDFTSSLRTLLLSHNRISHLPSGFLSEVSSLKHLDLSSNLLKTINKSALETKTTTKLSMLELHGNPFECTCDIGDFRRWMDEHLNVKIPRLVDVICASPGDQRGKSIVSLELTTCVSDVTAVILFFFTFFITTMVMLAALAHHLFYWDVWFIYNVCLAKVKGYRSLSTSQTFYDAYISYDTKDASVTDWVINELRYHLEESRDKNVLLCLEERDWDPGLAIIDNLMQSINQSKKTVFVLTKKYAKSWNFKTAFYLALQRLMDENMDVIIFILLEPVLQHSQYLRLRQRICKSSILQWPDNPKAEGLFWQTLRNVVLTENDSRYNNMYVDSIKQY
Procedure: as §1, §2

Structure (SMILES) | IC50 [1] | IC50 [2] | IC50 [3]
Cc1cc(C2CCN(C3CC4CCC(C3)N4CC3CC3)CC2)nc2c1nc(-c1ccc(S(C)(=O)=O)cc1)n2C (single isomer, unassigned) [Example 31, 5-(1-(8-(cyclopropylmethyl)-8-azabicyclo[3.2.1]octan-3-yl)piperidin-4-yl)-3,7-dimethyl-2-(4-(methylsulfonyl)phenyl)-3H-imidazo[4,5-b]pyridine] | 240 nM | 7200 nM | 19000 nM
Cc1cc(C2CCN(C3CC4CCC(C3)N4C3CCOCC3)CC2)nc2c1nc(-c1ccc(S(C)(=O)=O)cc1)n2C (single isomer, unassigned) [Example 35, 3,7-dimethyl-2-(4-(methylsulfonyl)phenyl)-5-(1-(8-(tetrahydro-2H-pyran-4-yl)-8-azabicyclo[3.2.1]octan-3-yl)piperidin-4-yl)-3H-imidazo[4,5-b]pyridine] | 340 nM | 7400 nM | > 50000 nM
Cc1cc(-c2ccc(CN3CC4(C3)CN(C(C)C)C4)cc2)nc2c1nc(-c1ccc(S(C)(=O)=O)cc1)n2C1CC1 [Example 3, 3-cyclopropyl-5-(4-((6-isopropyl-2,6-diazaspiro[3.3]heptan-2-yl)methyl)phenyl)-7-methyl-2-(4-(methylsulfonyl)phenyl)-3H-imidazo[4,5-b]pyridine] | 190 nM | 710 nM | > 50000 nM
Cc1cc(-c2ccc(CN3CC4(C3)CN(C3CCOCC3)C4)cc2)nc2c1nc(-c1ccc(S(C)(=O)=O)cc1)n2C1CC1 [Example 5, 3-cyclopropyl-7-methyl-2-(4-(methylsulfonyl)phenyl)-5-(4-((6-(tetrahydro-2H-pyran-4-yl)-2,6-diazaspiro[3.3]heptan-2-yl)methyl)phenyl)-3H-imidazo[4,5-b]pyridine] | 320 nM | 200 nM | 260 nM
Cc1cc(-c2ccc(N3CCN(C(C)C)CC3)cc2)nc2c1nc(-c1ccc(S(C)(=O)=O)cc1)n2C [Example 7, 5-(4-(4-isopropylpiperazin-1-yl)phenyl)-3,7-dimethyl-2-(4-(methylsulfonyl)phenyl)-3H-imidazo[4,5-b]pyridine] | 1200 nM | 29000 nM | > 50000 nM

The next molecules have a lower IC50 [1] than those just listed; values first:

IC50 [1] | IC50 [2] | IC50 [3] | Structure (SMILES)
130 nM | 8100 nM | 27000 nM | Cc1cc(-c2ccc(CN3CC4(C3)CN(C3CCC3)C4)cc2)nc2c1nc(-c1ccc(S(C)(=O)=O)cc1)n2C1CC1 [Example 1, 5-(4-((6-cyclobutyl-2,6-diazaspiro[3.3]heptan-2-yl)methyl)phenyl)-3-cyclopropyl-7-methyl-2-(4-(methylsulfonyl)phenyl)-3H-imidazo[4,5-b]pyridine]
100 nM | 7200 nM | 31000 nM | Cc1cc(-c2ccc(CN3CCC(N4CCCC4)CC3)cc2)nc2c1nc(-c1ccc(S(C)(=O)=O)cc1)n2C1CC1 [Example 2, 3-cyclopropyl-7-methyl-2-(4-(methylsulfonyl)phenyl)-5-(4-((4-(pyrrolidin-1-yl)piperidin-1-yl)methyl)phenyl)-3H-imidazo[4,5-b]pyridine]
60 nM | 2900 nM | > 50000 nM | Cc1cc(C2CCN(C3CC4CCC(C3)N4CC3CC3)CC2)nc2c1nc(-c1ccc(S(C)(=O)=O)cc1)n2C (single isomer, unassigned) [Example 30, 5-(1-(8-(cyclopropylmethyl)-8-azabicyclo[3.2.1]octan-3-yl)piperidin-4-yl)-3,7-dimethyl-2-(4-(methylsulfonyl)phenyl)-3H-imidazo[4,5-b]pyridine]
37 nM | 5700 nM | > 50000 nM | Cc1cc(C2CCN(C3CC4CCC(C3)N4C3CCOCC3)CC2)nc2c1nc(-c1ccc(S(C)(=O)=O)cc1)n2C (single isomer, unassigned) [Example 34, 3,7-dimethyl-2-(4-(methylsulfonyl)phenyl)-5-(1-(8-(tetrahydro-2H-pyran-4-yl)-8-azabicyclo[3.2.1]octan-3-yl)piperidin-4-yl)-3H-imidazo[4,5-b]pyridine]
